Literature values, collected in US10493079B2, “Stable carfilzomib formulations” (Cipla Limited, priority 2016, dated 2019).

- aqueous solubility: extremely low
Compound: CC(C)C[C@H](NC(=O)[C@H](CCc1ccccc1)NC(=O)CN1CCOCC1)C(=O)N[C@@H](Cc1ccccc1)C(=O)N[C@@H](CC(C)C)C(=O)[C@@]1(C)CO1 [carfilzomib]
